Test results: ChEMBL document CHEMBL4190177 (2016)
Activity calls are given as the source filed them. The calls are words filed in the database; no cut-off is given here.

How the values were obtained:
C6 [1] = test: Cytotoxicity against rat C6 cells assessed as reduction in cell viability at 150 uM relative to control; assay type: functional
U138-MG [2] = test: Cytotoxicity against human U138MG cells assessed as reduction in cell viability at 150 uM relative to control; assay type: functional
C6 [3] = test: Cytotoxicity against rat C6 cells assessed as reduction in cell viability after 72 hrs by MTT assay; assay type: functional, cell-based
C6 [4] = test: Cytotoxicity against rat C6 cells assessed as reduction in cell viability at 25 to 50 uM after 72 hrs by MTT assay; assay type: functional, cell-based
C6 [5] = test: Cytotoxicity against rat C6 cells assessed as reduction in cell viability at 50 uM after 72 hrs by MTT assay relative to control; assay type: functional
C6 [6] = test: Cytotoxicity against rat C6 cells assessed as reduction in cell viability at 5 to 50 uM after 72 hrs by MTT assay; assay type: functional, cell-based
C6 [7] = test: Cytotoxicity against rat C6 cells assessed as reduction in cell viability at 10 uM after 72 hrs by MTT assay relative to control; assay type: functional
C6 [8] = test: Cytotoxicity against rat C6 cells assessed as reduction in cell viability at 5 uM after 72 hrs by MTT assay relative to control; assay type: functional
U138-MG [9] = test: Cytotoxicity against human U138MG cells assessed as reduction in cell viability at 10 uM relative to control; assay type: functional

Structure (SMILES): O=Cc1cccc(O)c1 [3-HYDROXYBENZALDEHYDE]
- Activity (C6 [1]): 30%
- Activity (U138-MG [2]): 30%

Structure (SMILES): CCCCCCCCCCCCCCCCCCOC(=O)C1=C(C)NC2=C(C(=O)CC(C)(C)C2)C1c1ccc(OC)cc1 (stereo not given)
- Activity (C6 [3]): Dose-dependent effect

Structure (SMILES): CCCCCCCCCCCCCCCCCCOC(=O)C1=C(C)NC2=C(C(=O)CC(C)(C)C2)C1c1cccc(OC)c1 (stereo not given)
- Activity (C6 [3]): Dose-dependent effect
- Activity (C6 [4]): inactive

Structure (SMILES): CCOC(=O)C1=C(C)NC(=S)NC1c1cccc(O)c1 (stereo not given) [MONASTROL]
- Activity (C6 [5]): 50%

Structure (SMILES): CCOC(=O)C1=C(C)NC2=C(C(=O)CC(C)(C)C2)C1c1ccccc1 (stereo not given)
- Activity (C6 [6]): Active

Structure (SMILES): CCCCCCCCCCCCCCCCCCOC(=O)C1=C(C)NC2=C(C(=O)CC(C)(C)C2)C1c1cccc([N+](=O)[O-])c1 (stereo not given)
- Activity (C6 [3]): Dose-dependent effect
- Activity (C6 [4]): inactive

Structure (SMILES): CCCCCCCCCCCCCCCCOC(=O)C1=C(C)NC2=C(C(=O)CC(C)(C)C2)C1c1ccccc1 (stereo not given)
- Activity (C6 [3]): Dose-dependent effect

Structure (SMILES): CCCCCCCCCCCCCCCCOC(=O)C1=C(C)NC2=C(C(=O)CC(C)(C)C2)C1c1cccc(O)c1 (stereo not given)
- Activity (C6 [3]): Dose-dependent effect
- Activity (C6 [7]): 40%

Structure (SMILES): CCCCCCCCCCCCCCCCCCOC(=O)C1=C(C)NC2=C(C(=O)CC(C)(C)C2)C1c1cccc(O)c1 (stereo not given)
- Activity (C6 [3]): Dose-dependent effect
- Activity (C6 [8]): 40%

Structure (SMILES): CCCCCCCCCCCCCCCCOC(=O)C1=C(C)NC(=O)NC1c1cccc(O)c1 (stereo not given)
- Activity (U138-MG [9]): 50%
